As usually defined, the EC50 is the concentration that produces a half-maximal response. As usually defined, the Emax is the size of the effect at its maximum, as opposed to the concentration needed.

One assay has as its target T1, Relaxin receptor 1 (Homo sapiens, UniProt Q9HBX9).
T1 sequence (Q9HBX9 whole entry): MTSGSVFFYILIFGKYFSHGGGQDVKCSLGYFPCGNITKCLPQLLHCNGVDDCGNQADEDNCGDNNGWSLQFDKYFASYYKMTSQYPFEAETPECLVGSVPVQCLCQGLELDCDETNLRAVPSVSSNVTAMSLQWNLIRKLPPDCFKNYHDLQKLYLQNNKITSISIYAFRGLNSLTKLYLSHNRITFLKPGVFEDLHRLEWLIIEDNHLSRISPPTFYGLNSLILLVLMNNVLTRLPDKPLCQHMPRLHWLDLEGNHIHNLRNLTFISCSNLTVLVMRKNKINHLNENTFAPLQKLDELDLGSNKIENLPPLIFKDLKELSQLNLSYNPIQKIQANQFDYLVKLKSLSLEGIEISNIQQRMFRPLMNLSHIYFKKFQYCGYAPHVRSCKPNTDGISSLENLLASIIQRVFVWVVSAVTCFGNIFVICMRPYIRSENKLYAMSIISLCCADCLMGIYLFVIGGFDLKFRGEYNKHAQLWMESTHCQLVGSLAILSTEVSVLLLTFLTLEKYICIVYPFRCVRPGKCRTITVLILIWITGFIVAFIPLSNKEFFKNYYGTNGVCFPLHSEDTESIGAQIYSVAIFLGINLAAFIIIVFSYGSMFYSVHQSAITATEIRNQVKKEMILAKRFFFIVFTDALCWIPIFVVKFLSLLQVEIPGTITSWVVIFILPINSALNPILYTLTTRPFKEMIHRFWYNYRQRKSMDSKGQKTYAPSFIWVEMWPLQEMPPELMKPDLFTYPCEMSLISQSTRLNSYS
The assay can be described thus: Agonist activity at RXFP1 endogenously expressed in human OVCAR-5 cells assessed as increase in IBMX-induced cAMP accumulation pretreated with IBMX for 40 mins followed by compound addition and measured after 30 mins by HTRF assay. It is filed as functional, cell-based.

Assay [1] addresses T2, Relaxin receptor 1 (Homo sapiens) (UniProt Q9HBX9).
T2 sequence (whole entry): T1 sequence (Q9HBX9 whole entry)
The assay can be described thus: Agonist activity at RXFP1 endogenously expressed in human OVCAR-5 cells assessed as increase in IBMX-induced cAMP accumulation pretreated with IBMX for 40 mins followed by compound addition and measured after 30 mins by HTRF assay relative to relaxin. As to conditions: filed as agonist. It is filed as functional, cell-based. (Changes in cAMP serve as a functional read-out for many G protein-coupled receptors.)

*1 amine or outer side, *2 acyl side, *3 side chain or, on linkers, in order; H or OH if unused. Where a SMILES comes first, the peptide text is derived from it. [ ]: non-standard residue; d: D form. ξ: configuration not given here. β2hAla(2S) = C[C@@H](CN[*:1])C(=O)[*:2]; X4 = CCCC[C@H](O[*:1])C(=O)[*:2]; ξβ2hAla = CC(CN[*:1])C(=O)[*:2]; hLys = NCCCCC[C@H](N)C(=O)O

On to `CC[C@H](C)[C@H](NC(=O)C(C)CNC(=O)[C@H](NC(=O)[C@H](CCC(N)=O)NC(=O)[C@H](C)NC(=O)[C@H](CCCNC(=N)N)NC(=O)[C@@H](NC(=O)[C@H](CCCCN)NC(=O)[C@H](CCC(=O)O)NC(=O)[C@H](CCCNC(=N)N)NC(=O)CNC(=O)[C@H](CCC(=O)O)NC(=O)[C@H](CC(C)C)NC(C)=O)C(C)C)[C@@H](C)CC)C(=O)N[C@@H](CCC(=O)O)C(=O)NCC(=O)N[C@@H](CCSC)C(=O)N[C@@H](CO)C(=O)N[C@@H](CCCCN)C(=O)N[C@@H](Cc1c[nH]c2ccccc12)C(=O)N[C@@H](CO)C(=O)N[C@@H](CCCCN)C(=O)N[C@@H](CCCNC(=N)N)C(=O)N[C@@H](CCCCN)C(=O)N[C@@H](CCCCN)C(N)=O` (some centres not stated), for which the EC50 at Relaxin receptor 1 worked out at 43 nM. In addition, in assay [1], the Emax came out at 91%. The matching figures for `CC[C@H](C)[C@H](NC(=O)[C@H](CCC(N)=O)NC(=O)[C@H](C)NC(=O)[C@H](CCCNC(=N)N)NC(=O)[C@@H](NC(=O)[C@H](CCCCN)NC(=O)[C@H](CCC(=O)O)NC(=O)[C@H](CCCNC(=N)N)NC(=O)CNC(=O)[C@H](CCC(=O)O)NC(=O)[C@H](CC(C)C)NC(=O)[C@H](CCCCN)NC(=O)[C@@H](NC(=O)[C@@H](NC(=O)[C@H](CCC(=O)O)NC(=O)[C@H](CCC(=O)O)NC(C)=O)C(C)C)[C@@H](C)CC)C(C)C)C(=O)NCC(C)C(=O)NCC(C)C(=O)N[C@@H](CCC(=O)O)C(=O)NCC(=O)N[C@@H](CCSC)C(=O)N[C@@H](CO)C(=O)N[C@@H](CCCCN)C(=O)N[C@@H](Cc1c[nH]c2ccccc12)C(=O)N[C@@H](CO)C(=O)NC[C@H](C)C(=O)N[C@@H](CCCNC(=N)N)C(=O)N[C@@H](CCCCN)C(=O)N[C@@H](CCCCN)C(=O)O` (stereo partly drawn) (Ac-EEVIKLEGREKVRAQI[ξβ2hAla][ξβ2hAla]EGMSKWS[β2hAla(2S)]RKK-OH): 17 nM and 95%. Regarding `CCCC[C@H](OC(=O)CNC(=O)[C@H](CCC(=O)O)NC(=O)[C@@H](C)CNC(=O)[C@@H](C)CNC(=O)[C@@H](NC(=O)[C@H](CCCCCNC(C)=O)NC(=O)[C@@H](C)CNC(=O)[C@@H](C)CNC(=O)[C@H](CCCCN)NC(=O)[C@H](C)NC(=O)[C@H](CCCNC(=N)N)NC(=O)[C@@H](NC(=O)[C@H](CCCCN)NC(=O)[C@H](CCC(=O)O)NC(=O)[C@H](CCCNC(=N)N)NC(=O)CNC(=O)[C@H](CCC(=O)O)NC(=O)[C@H](CC(C)C)NC(C)=O)C(C)C)[C@@H](C)CC)C(=O)N[C@@H](CO)C(=O)N[C@H](C(=O)N[C@@H](Cc1c[nH]c2ccccc12)C(=O)N[C@@H](CO)C(=O)NC[C@H](C)C(=O)N[C@@H](CCCNC(=N)N)C(=O)N[C@@H](CCCCN)C(=O)N[C@@H](CCCCN)C(N)=O)[C@@H](C)O` (Ac-LEGREKVRAK[β2hAla(2S)][β2hAla(2S)][hLys](Ac)I[β2hAla(2S)][β2hAla(2S)]EG[X4]STWS[β2hAla(2S)]RKK-NH2), the 50% effective concentration (EC50) at Relaxin receptor 1 is 45 nM. Besides, the maximum response (Emax) in assay [1] came to 95%. On to `CCCC[C@H](OC(=O)CNC(=O)[C@H](CCC(=O)O)NC(=O)[C@@H](C)CNC(=O)[C@@H](NC(=O)[C@H](CCC(N)=O)NC(=O)[C@H](C)NC(=O)[C@H](CCCNC(=N)N)NC(=O)[C@@H](NC(=O)[C@H](CCCCN)NC(=O)[C@H](CCC(=O)O)NC(=O)[C@H](CCCNC(=N)N)NC(=O)CNC(=O)[C@H](CCC(=O)O)NC(=O)[C@H](CC(C)C)NC(C)=O)C(C)C)[C@@H](C)CC)C(=O)N[C@@H](CO)C(=O)N[C@H](C(=O)N[C@@H](Cc1c[nH]c2ccccc12)C(=O)N[C@@H](CO)C(=O)NC[C@H](C)C(=O)N[C@@H](CCCNC(=N)N)C(=O)N[C@@H](CCCCN)C(=O)N[C@@H](CCCCN)C(=O)N[C@@H](CCCCCNC(C)=O)C(N)=O)[C@@H](C)O` (Ac-LEGREKVRAQI[β2hAla(2S)]EG[X4]STWS[β2hAla(2S)]RKK[hLys](Ac)-NH2), for which the EC50 on Relaxin receptor 1 came to 32 nM. In assay [1], the maximal response (Emax) was determined as 96%.

`CC[C@H](C)[C@H](NC(=O)[C@H](CCC(N)=O)NC(=O)[C@H](C)NC(=O)[C@H](CCCNC(=N)N)NC(=O)[C@@H](NC(=O)[C@H](CCCCN)NC(=O)[C@H](CCC(=O)O)NC(=O)[C@H](CCCNC(=N)N)NC(=O)CNC(=O)[C@H](CCC(=O)O)NC(=O)[C@H](CC(C)C)NC(=O)[C@H](CCCCN)NC(=O)[C@@H](NC(=O)[C@@H](NC(C)=O)C(C)C)[C@@H](C)CC)C(C)C)C(=O)NC[C@H](C)C(=O)NC[C@H](C)C(=O)N[C@@H](CCC(=O)O)C(=O)NCC(=O)N[C@@H](CCSC)C(=O)N[C@@H](CO)C(=O)N[C@@H](CCCCN)C(=O)N[C@@H](Cc1c[nH]c2ccccc12)C(=O)N[C@@H](CO)C(=O)NC[C@H](C)C(=O)N[C@@H](CCCNC(=N)N)C(=O)N[C@@H](CCCCN)C(=O)N[C@@H](CCCCN)C(N)=O` (Ac-VIKLEGREKVRAQI[β2hAla(2S)][β2hAla(2S)]EGMSKWS[β2hAla(2S)]RKK-NH2): the EC50 on Relaxin receptor 1 stood at 19.5 nM. The maximal response (Emax) in assay [1] amounted to 99%.

Take `CC[C@H](C)[C@H](NC(=O)[C@H](CCC(N)=O)NC(=O)[C@H](C)NC(=O)[C@H](CCCNC(=N)N)NC(=O)[C@@H](NC(=O)[C@H](CCCCN)NC(=O)[C@H](CCC(=O)O)NC(=O)[C@H](CCCNC(=N)N)NC(=O)CNC(=O)[C@H](CCC(=O)O)NC(=O)[C@H](CC(C)C)NC(=O)[C@H](CCCCN)NC(=O)[C@@H](NC(=O)[C@@H](NC(=O)[C@H](CCC(=O)O)NC(=O)[C@H](CCC(=O)O)NC(C)=O)C(C)C)[C@@H](C)CC)C(C)C)C(=O)NC[C@H](C)C(=O)N[C@H](C(=O)N[C@@H](CCC(=O)O)C(=O)NCC(=O)N[C@@H](CCSC)C(=O)N[C@@H](CO)C(=O)N[C@@H](CCCCN)C(=O)N[C@@H](Cc1c[nH]c2ccccc12)C(=O)N[C@@H](CO)C(=O)N[C@@H](CCCCN)C(=O)N[C@@H](CCCNC(=N)N)C(=O)N[C@@H](CCCCN)C(=O)N[C@@H](CCCCN)C(N)=O)[C@@H](C)CC` (HELM PEPTIDE1{[ac].E.E.V.I.K.L.E.G.R.E.K.V.R.A.Q.I.[C[C@@H](CN[*:1])C(=O)[*:2]].I.E.G.M.S.K.W.S.K.R.K.K.[am]}$$$$V2.0): the concentration for a half-maximal effect (EC50) at Relaxin receptor 1 was determined as 45 nM. For the same compound, the maximum response (Emax) in assay [1] stood at 97%. Regarding `CC[C@H](C)[C@H](NC(=O)[C@H](CCC(N)=O)NC(=O)[C@H](C)NC(=O)[C@H](CCCNC(=N)N)NC(=O)[C@@H](NC(=O)[C@H](CCCCN)NC(=O)[C@H](CCC(=O)O)NC(=O)[C@H](CCCNC(=N)N)NC(=O)CNC(=O)[C@H](CCC(=O)O)NC(=O)[C@H](CC(C)C)NC(=O)[C@H](CCCCN)NC(=O)[C@@H](NC(=O)[C@@H](NC(=O)[C@H](CCC(=O)O)NC(=O)[C@H](CCC(=O)O)NC(C)=O)C(C)C)[C@@H](C)CC)C(C)C)C(=O)NC[C@H](C)C(=O)N[C@H](C(=O)N[C@@H](CO)C(=O)NCC(=O)N[C@@H](CCSC)C(=O)N[C@@H](CO)C(=O)N[C@H](C(=O)N[C@@H](Cc1c[nH]c2ccccc12)C(=O)N[C@@H](CO)C(=O)N[C@@H](CCCCN)C(=O)N[C@@H](CCCNC(=N)N)C(=O)N[C@@H](CCCCN)C(=O)N[C@@H](CCCCN)C(N)=O)[C@@H](C)O)[C@@H](C)CC` (HELM PEPTIDE1{[ac].E.E.V.I.K.L.E.G.R.E.K.V.R.A.Q.I.[C[C@@H](CN[*:1])C(=O)[*:2]].I.S.G.M.S.T.W.S.K.R.K.K.[am]}$$$$V2.0), the EC50 at Relaxin receptor 1 was determined as 124 nM. Also, in assay [1], the Emax came to 98%.

Regarding `CC[C@H](C)[C@H](NC(=O)[C@H](CCC(N)=O)NC(=O)[C@H](C)NC(=O)[C@H](CCCNC(=N)N)NC(=O)[C@@H](NC(=O)[C@H](CC(C)C)NC(=O)[C@H](CCC(=O)O)NC(=O)[C@H](CCCNC(=N)N)NC(=O)CNC(=O)[C@H](CO)NC(=O)[C@H](CC(C)C)NC(=O)[C@H](CCCCN)NC(=O)[C@@H](NC(=O)[C@@H](NC(=O)[C@H](CCC(=O)O)NC(=O)[C@H](CCC(=O)O)NC(C)=O)C(C)C)[C@@H](C)CC)C(C)C)C(=O)N[C@@H](C)C(=O)NC[C@H](C)C(=O)N[C@@H](CO)C(=O)NCC(=O)N[C@@H](CCSC)C(=O)N[C@@H](CO)C(=O)N[C@H](C(=O)N[C@@H](Cc1c[nH]c2ccccc12)C(=O)N[C@@H](CO)C(=O)N[C@@H](CCCCN)C(=O)N[C@@H](CCCNC(=N)N)C(=O)N[C@@H](CCCCN)C(=O)N[C@@H](CCCCN)C(=O)O)[C@@H](C)O` (HELM PEPTIDE1{[ac].E.E.V.I.K.L.S.G.R.E.L.V.R.A.Q.I.A.[C[C@@H](CN[*:1])C(=O)[*:2]].S.G.M.S.T.W.S.K.R.K.K}$$$$V2.0), the concentration giving a half-maximal response (EC50) on Relaxin receptor 1 was 32 nM. For the same compound, the Emax in assay [1] is 95%. In the case of Ac-VIKLSGRELVRAQIAISGMSTWSKRSL-NH2, the Emax in assay [1] is 70%.
